In patent US20230339952A1, “MACROCYCLIC HETEROCYCLES AND USES THEREOF” (Kumquat Biosciences Inc., priority 2022, published 2023):
Like-named read-outs stand apart in the source and are kept apart here.

Experiments:
SOS1 = SOS1 (Homo sapiens (Human), UniProt Q07889); assay: Ras-SOS interaction assay (HTRF), K-Ras G13D utilized; type: binding
[1] = tested on: NCI-H1975 (ATCC CRL-5908) cell line comprising an EGFR T790M L858R double mutation; assay: EGFR-SOS cellular inhibition assay (CellTiter-Glo cell proliferation); type: cell-based; details: Homo sapiens
Method: A CellTiter-Glo (CTG) luminescent based assay (Promega) is used to assess growth of the cells, as a measurement of the ability of the compounds herein to inhibit EGFR signaling in the cells. […] The day after plating, cells are treated with a dilution series (e.g., a 9 point 3-fold dilution series) of the compounds herein (e.g., approximately 125 μL final volume per well).

[2] = from C[C@@H](Nc1ncnc2c1cc(C1(C#N)CCS(=O)(=O)CC1)c(=O)n2CCCCCCC=O)c1cccc(C(F)(F)C2CCNCC2)c1F; amine bond; NaBH3CN; MeOH; 0.73 mM; 25.0 °C; 16.5 h
[3] = Mouse oral exposure (% F); type: in vivo; details: plasma, female CD-1 mice, 10 mg/kg oral vs 2 mg/kg IV, single dosing
Method: A pharmacokinetic profile for a test compound is assessed by single dosing in female CD-1 mice. […] One set of animals is dosed intravenous (IV) with test compound, 2 mg/kg in 20% HP-beta-CD or 20% Captisol, pH adjusted to −5-6 by citric acid at 10 mL/kg. Time of blood sampling is 5 minutes, 15 minutes, 30 minutes, 90 minutes, 360 minutes, and 24 hours following IV dosing. […] Oral dosing solution concentration is 1 mg/mL test compound and 10 mL/kg. Time of blood sampling is 15 minutes, 30 minutes, 90 minutes, 180 minutes, 360 minutes and 24 hours following oral (po) dosing. Blood samples (˜0.1 mL/sample) are collected via submandibular facial vein and placed in tubes containing EDTA-K2 and stored on ice until centrifuged. The blood samples are centrifuged at approximately 6800 g for 6 minutes at 2-8° C. and the resulting plasma is separated and stored frozen at approximately −80° C. Plasma samples are analyzed using an Agilent Technologies 6430 Triple Quad LC/MS system, following the manufacturer instructions. All the analytes are detected with positive-mode electrospray ionization (ES+). […] Based on the time course sampling, an area under the curve is calculated for the oral dose group and the intravenous dose group. Percentage mouse bioavailability is calculated based on equation 6. […]

[4] = tested on: MIA PaCa-2 cells (K-Ras G12C); assay: Ras-SOS cellular growth inhibition assay (CellTiter-Glo); details: Homo sapiens, MIA PaCa-2, 120 h, read-out: IC50 in inhibiting MIA PaCa-2 cell growth
Method: A CellTiter-Glo (CTG) luminescent based assay (Promega) is used to assess growth of the cells, as a measurement of the ability of the compounds herein to inhibit Ras signaling in the cells. […] The day after plating, cells are treated with a dilution series (e.g., a 9 point 3-fold dilution series) of the compounds herein (e.g., approximately 125 μL final volume per well). Cell viability can be monitored (e.g., approximately 5 days later) according to the manufacturer's recommended instructions, where the CellTiter-Glo reagent is added (e.g., approximately 65 μL), vigorously mixed, covered, and placed on a plate shaker (e.g., approximately for 20 min) to ensure sufficient cell lysis prior to assessment of luminescent signal. The IC50 values are determined using the four-parameter fit. The resulting IC50 value is a measurement of the ability of the compounds herein to reduce cell growth of Ras-driven cells as representative tumor cells.

[5] = K-Ras G13D, read-out: SOS1 IC50
[6] = 120 h, NCI-H1975 cell proliferation, approximately 5 days, read-out: H1975 IC50
[7] = K-Ras G13D, read-out: IC50 value against SOS1
[8] = comparative values (Table 3), read-out: SOS1 IC50
[9] = NCI-H1975, EGFR T790M L858R double mutation, read-out: IC50 in inhibiting growth of NCI-H1975 cell line

Chain of SOS1 (Q07889 564-1049): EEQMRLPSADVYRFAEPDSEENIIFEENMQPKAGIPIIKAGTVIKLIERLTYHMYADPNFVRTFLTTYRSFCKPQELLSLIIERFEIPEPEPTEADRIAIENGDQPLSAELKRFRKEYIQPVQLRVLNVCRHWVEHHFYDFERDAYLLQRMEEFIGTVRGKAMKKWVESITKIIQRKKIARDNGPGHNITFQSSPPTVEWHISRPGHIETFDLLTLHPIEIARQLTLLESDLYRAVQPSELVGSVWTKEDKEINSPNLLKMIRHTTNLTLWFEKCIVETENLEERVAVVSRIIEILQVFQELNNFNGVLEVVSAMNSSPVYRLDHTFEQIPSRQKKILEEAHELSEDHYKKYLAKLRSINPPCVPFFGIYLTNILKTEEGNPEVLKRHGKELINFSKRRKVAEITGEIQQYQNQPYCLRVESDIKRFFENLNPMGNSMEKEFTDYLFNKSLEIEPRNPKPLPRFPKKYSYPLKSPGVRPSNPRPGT

SMILES | IC50 (SOS1; [5]) [µM] | IC50 [1, 6] [µM] | ring closure, yield of all isomers [2] [%] | IC50 (SOS1; [7]) [µM] | IC50 (SOS1; [8]) [µM] | IC50 [1, 9] [µM] | bioavailability [3] [%] | IC50 [4] [µM]
C[C@H]1Nc2ncnc3c2cc(C2(C#N)CCS(=O)(=O)CC2)c(=O)n3CCCCCCCN2CCC(CC2)C(F)(F)c2cccc1c2F [Compound 112, 4-((4R)-3^2,2,2-trifluoro-4-methyl-6^7-oxo-6^7,6^8-dihydro-5-aza-6(4,8)-pyrido[2,3-d]pyrimidina-1(4,1)-piperidina-3(1,3)-benzenacyclotridecaphane-6^6-yl)tetrahydro-2H-thiopyran-4-carbonitrile 1,1-dioxide] | < 0.1 | < 1 | 28.2 |  |  |  |  | 
C[C@H]1Nc2ncnc3c2cc(C2CCS(=O)(=O)CC2)c(=O)n3CCCOCCCCN2CC(C2)CC(F)(F)c2cccc1c2 [Compound 176, (3R)-1^6-(1,1-dioxidotetrahydro-2H-thiopyran-4-yl)-5,5-difluoro-3-methyl-1^7,1^8-dihydro-12-oxa-2-aza-1(4,8)-pyrido[2,3-d]pyrimidina-7(3,1)-azetidina-4(1,3)-benzenacyclopentadecaphan-1^7-one] | < 0.1 | < 1 |  | < 0.05 | 0.007 | < 0.5 | ≥ 4 | 
Cc1nc2c3cc(C4CCN(C(C)C)CC4)c(=O)n(c3n1)CCCC/C=C\CN1CCC(CC1)C(F)(F)c1cccc(c1)[C@@H](C)N2 [Compound 175, (4R,Z)-2,2-difluoro-6^6-(1-isopropylpiperidin-4-yl)-6^2,4-dimethyl-6^7,6^8-dihydro-5-aza-6(4,8)-pyrido[2,3-d]pyrimidina-1(4,1)-piperidina-3(1,3)-benzenacyclotridecaphan-11-en-6^7-one] | < 0.1 | < 1 |  | < 0.05 | 0.008 | < 0.5 | ≥ 4 | < 1
